Reference: PMC4451689, “A Novel Direct Factor Xa Inhibitory Peptide with Anti-Platelet Aggregation Activity from Agkistrodon acutus Venom Hydrolysates” (Scientific Reports, 2015)
Marks after values point to notes of the source that are not given here. Where a SMILES comes first, the peptide text is derived from it.

Experiments:
bleeding time in mice = test: Bleeding time (tail cutting method); format: in vivo; conditions: n = 10; for bleeding time: tail in saline 37 °C, 20-min recording, mean ± SD
Procedure: Fifteen minutes after the administration of ACH-11 (1, 3 and 9 mg/kg), aspirin (9 mg/kg for 30 min) and the vehicle, a 3 mm-long tail tip was cut from the mice, and the remaining tail was immersed immediately into saline at 37 °C. The accumulated bleeding time (including periods of re-bleeding) was recorded over a 20-min period. Data are presented as the mean ± SD (n = 10). ^****P < 0.0001, ^**P < 0.01 versus vehicle, analyzed by one-way ANOVA, followed by the Tukey multiple comparison test.
(§1) Institute of Cancer Research (ICR) mice (18–22 g), Sprague-Dawley rats (180–250 g) and New Zealand white rabbits (2–2.5 kg) were purchased from Nanjing Qinglongshan Animal Center (Jiangsu province, China). They were housed in a temperature-controlled room at 25 ± 2 °C and 50 ± 5% relative humidity with a l2 h dark/light cycle. They were given free access to food and water ad libitum. The animals were acclimatized for at least 1 week prior to use. All experiments were carried out in accordance with the guidelines and the regulations of the Ethical Committee of the China Pharmaceutical University. The protocols were approved by the Institutional Animal Care and Use Committee of the China Pharmaceutical University.
Bleeding time of the mice was measured by a tail cutting method as described previously. Mice were randomly divided into five groups (both sexes, 10 per group), including a vehicle group, a reference drug group (9 mg/kg of aspirin-treated) and three sample groups (1, 3 and 9 mg/kg of ACH-11-treated).

[1] = tested on: U46619-induced rabbit platelet aggregation; test: In vitro platelet aggregation assay, U46619-induced; format: cell-based; conditions: U46619 6 μM, rabbit PRP, turbidimetric, preincubated 5 min; 95% CI 415.62–525.95 μM
Procedure: (§2) Figure 5 ACH-11 inhibited ADP- and U46619-induced rabbit platelet aggregation in vitro. PRP was preincubated for 5 min with different concentrations of ACH-11 (0.1, 0.25, 0.5 and 1 mg/mL) or the vehicle. Platelet aggregation was initiated with ADP (10 μM), U46619 (6 μM), thrombin (3 U/mL) or collagen (2.5 μg/mL). Data are the mean ± SD (n = 3), ^****P < 0.0001 and ^*P < 0.05 versus vehicle, analyzed by one-way ANOVA, followed by the Tukey multiple comparison test.
(§3) Institute of Cancer Research (ICR) mice (18–22 g), Sprague-Dawley rats (180–250 g) and New Zealand white rabbits (2–2.5 kg) were purchased from Nanjing Qinglongshan Animal Center (Jiangsu province, China). They were housed in a temperature-controlled room at 25 ± 2 °C and 50 ± 5% relative humidity with a l2 h dark/light cycle. They were given free access to food and water ad libitum. The animals were acclimatized for at least 1 week prior to use. […]
(§4) In vitro platelet aggregation assays were performed according to the turbidimetric method, as described previously. […] The extent of platelet aggregation inhibition by ACH-11 was calculated by the following formula (2): [drawing 2] where X represents the maximum aggregation rate of 5% DMSO-treated PRP and Y represents the maximum aggregation rate of sample-treated PRP. […]

[2] = tested on: ADP-induced rabbit platelet aggregation; test: In vitro platelet aggregation assay, ADP-induced; format: cell-based; conditions: ADP 10 μM, rabbit PRP, turbidimetric, preincubated 5 min; 95% CI 185.36–225.02 μM
Procedure: as §2, §3, §4

FXa [3] = molecular target: T1, FXa (Homo sapiens, UniProt P00742); test: Determination of the inhibitory constant for FXa (kinetics, Lineweaver-Burk); format: biochemical
Procedure: Figure 3 Kinetic activity of ACH-11 to FXa in vitro. Lineweaver-Burk plot (inset) for ACH-11 kinetics in PBS at pH 8.34 and 37 °C with mixed inhibition in the presence of different concentrations of ACH-11: 0 μM (slope of 0.376), 5 μM (slope of 0.528) and 10 μM (slope of 0.698). The plots represent the mean of 3 independent measurements.
Enzyme kinetic activity was assayed as described earlier, with minor modifications. All enzymatic reactions were carried out in PBS at pH 8.34 and at 37 °C. Freshly prepared FXa at a constant concentration of 1 nM was used in each reaction. ACH-11 was dissolved in 5% DMSO. Activities were measured for 4 different fixed concentrations of substrate (73.5, 147, 294 and 588 μM) in different concentrations of ACH-11 (0, 5 and 10 μM). The rates of the enzymatic reactions were monitored at 405 nm for 20 min using the Powerwave XS (Biotek, USA).

[4] = tested on: arterio-venous shunt thrombosis in rats; test: In vivo arterio-venous shunt thrombosis in rats; design: species or system Sprague-Dawley rats; conditions: aspirin 20 mg/kg, rat; mean ± SEM, n = 6
Procedure: Figure 6 ACH-11 inhibited arterio-venous shunt thrombosis in rats in vivo. After the administration of ACH-11 (0.33, 1 and 3 mg/kg), aspirin and the vehicle, rats were anesthetized by intraperitoneal injection of chloral hydrate (350 mg/kg), and an arterio-venous shunt tube (12 cm, containing 10-cm long of 4 braided silk thread) was installed between the right carotid artery and left jugular vein of each rat. After 20 min, the silk thread was removed from the shunt tube, and its wet weight was immediately measured. The dry weight of the thread was measured 6 h later at room temperature. The wet and dry weights of the formed thrombi were determined by subtracting the pre-experiment weights of the wet and dry 6-cm threads, respectively. Data are the mean ± SD, ^*P < 0.05, ^***P < 0.001 and ^****P < 0.0001 versus vehicle, n = 6, analyzed by one-way ANOVA, followed by the Tukey multiple comparison test. […]
Antithrombotic activity of ACH-11 in vivo was determined in a rat arterio-venous shunt thrombosis model as described previously[39] with a minor modification. […] Its wet weight was measured immediately. The dry weight of thread was measured 6 h later at room temperature. The wet and dry weights of the thrombi were determined by subtracting the pre-experimental weights of the wet and dry 6-cm threads, respectively.

[5] = tested on: ADP-induced acute pulmonary thrombosis in mice; test: ADP-induced acute pulmonary thrombosis in mice; format: in vivo, ICR mice; conditions: aspirin 20 mg/kg, ADP 300 mg/kg i.v.
Procedure: To examine whether ACH-11 exerted antithrombotic effects in vivo, the peptide was challenged in an acute pulmonary thrombosis model in mice. Aspirin, which is a clinical anti-thrombosis medicine that acts as a selective COX-1 inhibitor, was used as a positive control. In this model, small thrombi formed by intravenous injection of ADP (300 mg/kg) occluded pulmonary vessels, resulting in paralysis or death of the mice.
as §1
ADP-induced acute pulmonary thrombosis in mice was performed as described previously. Sixty ICR mice (18–22 g) were fasted overnight and randomly divided into 6 groups, with 10 mice per group (males and females in half). […]

FXa [6] = molecular target: T1, FXa; test: Inhibition of amidolytic activity of FXa (chromogenic substrate S-2222); format: biochemical; conditions: sample dissolved at 5 mg/mL, PBS pH 8.34, 37 °C, n = 3, compared with the other fractions/hydrolysates
Procedure: Figure 1 Selection of enzymatic hydrolysis conditions and bioassay-directed chromatographic separation of the FXa inhibitory peptide. (a) FXa inhibitory activities of Agkistrodon acutus venom hydrolysates obtained by treatment with pepsin, papain, neutrase and alcalase at 1, 2, 3, 4, 8, 12 h intervals. (b) Agkistrodon acutus venom hydrolysate produced by neutrase (3 h) was separated on a gel filtration column packed with Sephadex G-50 (2.6 × 100 cm). The hydrolysate was eluted by distilled water at a flow rate of 0.6 mL/min, collecting fractions of 3.6 mL. (c) The FXa inhibitory activities of fractions A-E. (d) Fraction C was separated on a Hedera ODS-2 column (20 × 250 mm). (e) The FXa inhibitory activities of fractions C1-C8. […]
The lyophilized neutrase hydrolysate (0.2 g) was dissolved in 10 mL of distilled water and applied to a Sephadex G-50 column (2.6 × 100 cm) equilibrated with distilled water and eluted with the same buffer at a flow rate of 0.6 mL/min. The eluents were monitored at 280 nm and were collected at 6 min intervals. […] The UV absorbance was monitored at 214 nm.
Inhibition of the amidolytic activity of FXa was analyzed by a method described previously, with minor modifications. Enzymatic activity was measured in PBS at pH 8.34 using the chromogenic substrate method. […] The absorbance-time curve and the slope of the curve (Vi) were used to represent the activity of the enzyme. […]

T1 sequence (P00742 235-488 limits assumed): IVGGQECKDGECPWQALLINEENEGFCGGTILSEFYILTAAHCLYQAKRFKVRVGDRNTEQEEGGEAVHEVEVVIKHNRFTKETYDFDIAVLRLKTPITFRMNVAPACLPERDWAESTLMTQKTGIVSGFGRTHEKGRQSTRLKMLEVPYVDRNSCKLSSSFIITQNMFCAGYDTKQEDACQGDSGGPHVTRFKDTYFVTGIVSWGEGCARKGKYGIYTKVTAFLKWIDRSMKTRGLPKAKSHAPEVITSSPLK
T1 sequence (P00742 41-179 partner limits assumed): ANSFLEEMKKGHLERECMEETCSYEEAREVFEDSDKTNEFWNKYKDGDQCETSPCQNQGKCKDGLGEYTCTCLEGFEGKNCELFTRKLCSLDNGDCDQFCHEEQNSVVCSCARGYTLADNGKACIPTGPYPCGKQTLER

## CC[C@H](C)[C@H](NC(=O)[C@H](CCCNC(=N)N)NC(=O)[C@@H]1CCCN1C(=O)[C@H](Cc1ccccc1)NC(=O)[C@@H](NC(=O)[C@@H](N)CC(C)C)[C@@H](C)O)C(=O)N[C@H](C(=O)N[C@@H](Cc1ccccc1)C(=O)N[C@H](C(=O)N[C@@H](CC(C)C)C(=O)NCC(=O)O)C(C)C)C(C)C [ACH-11, LTFPRIVFVLG] (H-LTFPRIVFVLG-OH)
Bleeding time in mice; ACH-11 1 mg/kg, 15 min after administration
  bleeding time: 10.71 ± 2.98 min
Bleeding time in mice; ACH-11 3 mg/kg, 15 min after administration
  bleeding time: 11.73 ± 2.68 min
Bleeding time in mice; ACH-11 9 mg/kg, 15 min after administration
  bleeding time: 14.01 ± 1.88 min
Bleeding time in mice; ACH-11 3 and 1 mg/kg, compared with vehicle
  bleeding time (effect in words): did not significantly prolong the bleeding time
[1]
  IC50: 468 µM
[2]
  IC50: 204 µM
FXa [3]; PBS pH 8.34, 37 °C, FXa 1 nM, S-2222 73.5-588 μM, ACH-11 0, 5, 10 μM, 5% DMSO, mixed inhibition, mean of 3 independent measurements, read-out: Ki value for FXa inhibition towards S-2222
  Ki: 9.02 µM
FXa [3]; in the presence of ACH-11, PBS pH 8.34, 37 °C
  change in Vmax and Km of FXa towards S-2222: A decrease in the Vmax value with a subsequent increase in the Km value

## CC(=O)Oc1ccccc1C(=O)O [Aspirin, aspirin]
Bleeding time in mice; aspirin 9 mg/kg, 30 min after administration
  bleeding time: 17.03 ± 2.86 min
[4]
  reduction of thrombus weight: 59.10 ± 2.98%
[5]; vehicle 9/10, P = 0.0055 versus vehicle
  Numbers of lethal/total: 2/10
[5]; vehicle 10%, P = 0.0055 versus vehicle, n = 10
  Protection rate: 80^** %

## LTFPRIVFVLG [fraction C4, RP-HPLC fraction of fraction C, purity greater than 96%; peptide … (natural ACH-11)]
FXa [6]
  FXa inhibitory activity (in words): displayed the highest FXa inhibitory activity
